Source: patent US11319315B2, “Cyclohexyl acid triazole azoles as LPA antagonists” (BRISTOL-MYERS SQUIBB COMPANY, priority 2017, dated 2022)

Biological target: T1, human LPA1 (Homo sapiens, UniProt Q92633)
T1 construct: expressed in transfected cells; host or cells: Chinese hamster ovary (CHO) cells
Test: LPA1 functional antagonist assay (LPA-induced calcium flux in CHO cells overexpressing human LPA1)
Type: cell-based
Settings: inhibition of calcium flux induced by 10 nM LPA, CHO cells overexpressing human LPA1; read-out: hLPA1 IC50
Procedure, shortened: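 CHO cells overexpressing human LPA1, dye-loaded 30 min at 37 °C, then given compound (0.08 nM–5 μM final, 0.5% DMSO) in HBSS/20 mM HEPES/0.1% fatty-acid-free BSA for 20 min at room temperature before 10 nM LPA. IC50 as 50% inhibition of LPA-evoked calcium flux, 4-parameter logistic fit.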

T1 sequence (Q92633 whole entry): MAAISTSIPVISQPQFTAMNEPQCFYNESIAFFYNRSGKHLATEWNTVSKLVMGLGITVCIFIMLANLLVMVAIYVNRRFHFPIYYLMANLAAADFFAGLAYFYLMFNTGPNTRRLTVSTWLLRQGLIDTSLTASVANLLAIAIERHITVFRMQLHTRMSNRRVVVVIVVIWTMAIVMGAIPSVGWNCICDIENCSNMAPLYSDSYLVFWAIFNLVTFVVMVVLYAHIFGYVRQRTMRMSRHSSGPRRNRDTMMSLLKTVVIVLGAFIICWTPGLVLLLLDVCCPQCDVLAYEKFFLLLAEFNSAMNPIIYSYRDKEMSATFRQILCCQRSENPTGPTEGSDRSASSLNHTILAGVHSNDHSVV

SMILES	IC50
Cn1nnc(-c2ccc(O[C@H]3CCC[C@H](C(=O)O)C3)cn2)c1CNc1noc(CCC2CCC2)n1 [Example 294, (1S,3S)-3-((6-(5-(((5-(2-cyclobutyl-ethyl)-1,2,4-oxadiazol-3-yl)amino)methyl)-1-methyl-1H-1,2,3-triazol-4-yl)pyridin-3-yl)oxy)cyclohexane-1-carboxylic acid]	33.4 nM
Cc1nc(-c2nnn(C)c2Cn2nnnc2-c2ccccc2)ccc1O[C@H]1CCC[C@H](C(=O)O)C1 [Example 108]	239 nM
Cc1nc(-c2nnn(C)c2CNc2noc(CCC(C)(F)F)n2)ccc1O[C@H]1CCC[C@H](C(=O)O)C1 [Example 188]	42 nM
CCc1nsc(NCc2c(-c3ccc(O[C@H]4CCC[C@H](C(=O)O)C4)c(C)n3)nnn2C)n1 [Example 118]	919 nM
Cc1nc(-c2nnn(C)c2CNc2noc(CCC3(C)CC3)n2)ccc1O[C@H]1CCC[C@H](C(=O)O)C1 [Example 187]	31 nM
CCCCc1nnnn1Cc1c(-c2ccc(O[C@H]3CCC[C@H](C(=O)O)C3)cn2)nnn1C [Example 256, (1S,3S)-3-((6-(5-((5-butyl-1H-tetrazol-1-yl)methyl)-1-methyl-1H-1,2,3-triazol-4-yl)pyridin-3-yl)oxy)cyclohexane-1-carboxylic acid]	111 nM
Cc1nc(-c2nnn(C)c2Cc2nc(-c3ccccc3)no2)ccc1O[C@H]1CCC[C@H](C(=O)O)C1 [Example 245, (1S,3S)-3-((2-methyl-6-(1-methyl-5-((3-phenyl-1,2,4-oxadiazol-5-yl)methyl)-1H-1,2,3-triazol-4-yl)pyridin-3-yl)oxy)cyclohexane-1-carboxylic acid]	79 nM
CCCC(C)c1nc(NCc2c(-c3ccc(O[C@H]4CCC[C@H](C(=O)O)C4)cn3)nnn2C)no1 (mixture of isomers) [Example 291, (1S,3S)-3-((6-(1-methyl-5-(((5-(pentan-2-yl)-1,2,4-oxadiazol-3-yl)amino)methyl)-1H-1,2,3-triazol-4-yl)pyridin-3-yl)oxy)cyclohexane-1-carboxylic acid, racemate]	59.4 nM
Cc1nc(-c2nnn(C)c2CNc2noc(C(C)OC3CC3)n2)ccc1O[C@H]1CCC[C@H](C(=O)O)C1 (mixture of isomers) [Example 226, (1S,3S)-3-((6-(5-(((5-(1-cyclopro-poxyethyl)-1,2,4-oxadiazol-3-yl)amino)methyl)-1-methyl-1H-1,2,3-triazol-4-yl)-2-methylpyridin-3-yl)oxy)cyclohexane-1-carboxylic acid]	123 nM
CCCn1ncc(NCc2c(-c3ccc(O[C@H]4CCC[C@H](C(=O)O)C4)c(C)n3)nnn2C)n1 [Example 29]	297 nM
Cc1nc(-c2nnn(C)c2CNc2cnn(-c3ccc(F)cc3)n2)ccc1O[C@H]1CCC[C@H](C(=O)O)C1 [Example 33, (1 S,3 S)-3-((6-(5-(((2-(4-fluorophenyl)-2H-1,2,3-triazol-4-yl)amino)methyl)-1-methyl-1H-1,2,3-triazol-4-yl)-2-methylpyridin-3-yl)oxy)cyclohexane-1-carboxylic acid]	84 nM
Cc1nc(-c2nnn(C)c2Cn2nnnc2Cc2ccccc2)ccc1O[C@H]1CCC[C@H](C(=O)O)C1 [Example 110]	207 nM

Same assay, conditions: read-out: hLPA1 IC50

SMILES	IC50
Cc1nc(-c2nnn(C)c2Cn2nnc(OCC3CC4CCC3C4)n2)ccc1O[C@H]1CCC[C@H](C(=O)O)C1 (stereo partly drawn) [Example 405, (1S,3S)-3-{[6-(5-{[5-({bicyclo[2.2.1]heptan-2-yl}methoxy)-2H-1,2,3,4-tetrazol-2-yl]methyl}-1-methyl-1H-1,2,3-triazol-4-yl)-2-methylpyridin-3-yl]oxy}cyclohexane-1-carboxylic acid]	47 nM
Cc1nc(-c2nnn(C)c2Cn2nnc(N(Cc3ccccc3)Cc3ccccc3)n2)ccc1O[C@H]1CCC[C@H](C(=O)O)C1 [Example 367, (1S,3S)-3-((6-(5-((5-(dibenzyl-amino)-2H-tetrazol-2-yl)methyl)-1-methyl-1H-1,2,3-triazol-4-yl)-2-methylpyridin-3-yl)oxy)cyclo-hexane-1-carboxylic acid]	1580 nM
